Where two headings read alike, the source gives them in different places.
System: hiPSC-CMs (iCell-Cardiomyocytes^2)
Method in brief: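 Monolayers of hiPSC-CMs on fibronectin-coated MEA plates, 50 K/well, kept at 37°C, 5% CO2; compounds added in 0.1% final DMSO after 5-min baseline. Field potential and impedance parameters expressed as mean ± SD percent change from baseline; arrhythmic events noted; cytotoxicity fluorescence normalized to DMSO, Kruskal-Wallis.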

SMILES: N=C(N)c1ccc(OCCCCCOc2ccc(C(=N)N)cc2)cc1 [Pentamidine]
- BR (beating rate), % change from baseline (0.1 µM, 2h): -1±2%
- Beating below threshold, number of observations/total well numbers (0.1 µM, 2h): 0/6
- Cessation of beating, number of observations/total well numbers (0.1 µM, 2h): 0/6
- EAD, number of observations/total well numbers (0.1 µM, 2h): 0/6
- FPD (field-potential duration), % change from baseline (0.1 µM, 2h): 2.6±1.2%
- FPDc (field-potential duration corrected by beat-rate), % change from baseline (0.1 µM, 2h): 2.2±1.4%
- Flat T-wave-like, number of observations/total well numbers (0.1 µM, 2h): 0/6
- BR (beating rate), % change from baseline (0.1 µM, 24h): 2±2%
- Beating below threshold, number of observations/total well numbers (0.1 µM, 24h): 0/6
- Cessation of beating, number of observations/total well numbers (0.1 µM, 24h): 0/6
- EAD, number of observations/total well numbers (0.1 µM, 24h): 0/6
- FPD (field-potential duration), % change from baseline (0.1 µM, 24h): 2±3.4%
- FPDc (field-potential duration corrected by beat-rate), % change from baseline (0.1 µM, 24h): 2.8±3.1%
- Flat T-wave-like, number of observations/total well numbers (0.1 µM, 24h): 0/6
- BR (beating rate), % change from baseline (0.1 µM, 48h): -4±3%
- Beating below threshold, number of observations/total well numbers (0.1 µM, 48h): 0/6
- Cessation of beating, number of observations/total well numbers (0.1 µM, 48h): 0/6
- EAD, number of observations/total well numbers (0.1 µM, 48h): 0/6
- FPD (field-potential duration), % change from baseline (0.1 µM, 48h): 7.3±1.7%
- FPDc (field-potential duration corrected by beat-rate), % change from baseline (0.1 µM, 48h): 5.7±2%
- Flat T-wave-like, number of observations/total well numbers (0.1 µM, 48h): 0/6
- BR (beating rate), % change from baseline (0.1 µM, 72h): -6±3%
- Beating below threshold, number of observations/total well numbers (0.1 µM, 72h): 0/6
- Cessation of beating, number of observations/total well numbers (0.1 µM, 72h): 0/6
- EAD, number of observations/total well numbers (0.1 µM, 72h): 0/6
- FPD (field-potential duration), % change from baseline (0.1 µM, 72h): 4.9±2.5%
- FPDc (field-potential duration corrected by beat-rate), % change from baseline (0.1 µM, 72h): 3±2.9%
- Flat T-wave-like, number of observations/total well numbers (0.1 µM, 72h): 0/6
- BR (beating rate), % change from baseline (0.1 µM, 96h): -13±3%
- Beating below threshold, number of observations/total well numbers (0.1 µM, 96h): 0/6
- Cessation of beating, number of observations/total well numbers (0.1 µM, 96h): 0/6
- EAD, number of observations/total well numbers (0.1 µM, 96h): 0/6
- FPD (field-potential duration), % change from baseline (0.1 µM, 96h): 9.2±3.1%
- FPDc (field-potential duration corrected by beat-rate), % change from baseline (0.1 µM, 96h): 4.3±2.8%
- Flat T-wave-like, number of observations/total well numbers (0.1 µM, 96h): 0/6
- BR (beating rate), % change from baseline (0.3 µM, 2h): -4±4%
- Beating below threshold, number of observations/total well numbers (0.3 µM, 2h): 0/5
- Cessation of beating, number of observations/total well numbers (0.3 µM, 2h): 0/5
- EAD, number of observations/total well numbers (0.3 µM, 2h): 0/5
- FPD (field-potential duration), % change from baseline (0.3 µM, 2h): 9.7±6.7 %
- FPDc (field-potential duration corrected by beat-rate), % change from baseline (0.3 µM, 2h): 8±7.4%
- Flat T-wave-like, number of observations/total well numbers (0.3 µM, 2h): 0/5
- BR (beating rate), % change from baseline (0.3 µM, 24h): 0±3%
- Beating below threshold, number of observations/total well numbers (0.3 µM, 24h): 0/5
- Cessation of beating, number of observations/total well numbers (0.3 µM, 24h): 0/5
- EAD, number of observations/total well numbers (0.3 µM, 24h): 0/5
- FPD (field-potential duration), % change from baseline (0.3 µM, 24h): 4.6±3.3%
- FPDc (field-potential duration corrected by beat-rate), % change from baseline (0.3 µM, 24h): 4.5±3.1%
- Flat T-wave-like, number of observations/total well numbers (0.3 µM, 24h): 0/5
- BR (beating rate), % change from baseline (0.3 µM, 48h): -2±4%
- Beating below threshold, number of observations/total well numbers (0.3 µM, 48h): 0/5
- Cessation of beating, number of observations/total well numbers (0.3 µM, 48h): 0/5
- EAD, number of observations/total well numbers (0.3 µM, 48h): 0/5
- FPD (field-potential duration), % change from baseline (0.3 µM, 48h): 4.9±2.6%
- FPDc (field-potential duration corrected by beat-rate), % change from baseline (0.3 µM, 48h): 4.1±2%
- Flat T-wave-like, number of observations/total well numbers (0.3 µM, 48h): 0/5
- BR (beating rate), % change from baseline (0.3 µM, 72h): -11±4%
- Beating below threshold, number of observations/total well numbers (0.3 µM, 72h): 0/5
- Cessation of beating, number of observations/total well numbers (0.3 µM, 72h): 0/5
- EAD, number of observations/total well numbers (0.3 µM, 72h): 0/5
- FPD (field-potential duration), % change from baseline (0.3 µM, 72h): 10.5±2.1%
- FPDc (field-potential duration corrected by beat-rate), % change from baseline (0.3 µM, 72h): 6.4±2.9%
- Flat T-wave-like, number of observations/total well numbers (0.3 µM, 72h): 0/5
- BR (beating rate), % change from baseline (0.3 µM, 96h): -20±5%
- Beating below threshold, number of observations/total well numbers (0.3 µM, 96h): 0/5
- Cessation of beating, number of observations/total well numbers (0.3 µM, 96h): 0/5
- EAD, number of observations/total well numbers (0.3 µM, 96h): 0/5
- FPD (field-potential duration), % change from baseline (0.3 µM, 96h): 17.7±1.7%
- FPDc (field-potential duration corrected by beat-rate), % change from baseline (0.3 µM, 96h): 9.3±1.9%
- Flat T-wave-like, number of observations/total well numbers (0.3 µM, 96h): 0/5
- time point from which physiologically relevant prolongation of FPD and FPDc was observed (1 µM): 48 h
- BR (beating rate), % change from baseline (1 µM, 2h): -3±3%
- Beating below threshold, number of observations/total well numbers (1 µM, 2h): 0/6
- Cessation of beating, number of observations/total well numbers (1 µM, 2h): 0/6
- EAD, number of observations/total well numbers (1 µM, 2h): 0/6
- FPD (field-potential duration), % change from baseline (1 µM, 2h): 3.6±1.6%
- FPDc (field-potential duration corrected by beat-rate), % change from baseline (1 µM, 2h): 2.5±1.7%
- Flat T-wave-like, number of observations/total well numbers (1 µM, 2h): 0/6
- BR (beating rate), % change from baseline (1 µM, 24h): -7±3%
- Beating below threshold, number of observations/total well numbers (1 µM, 24h): 0/6
- Cessation of beating, number of observations/total well numbers (1 µM, 24h): 0/6
- EAD, number of observations/total well numbers (1 µM, 24h): 0/6
- FPD (field-potential duration), % change from baseline (1 µM, 24h): 8±1%
- FPDc (field-potential duration corrected by beat-rate), % change from baseline (1 µM, 24h): 5.5±1.6%
- Flat T-wave-like, number of observations/total well numbers (1 µM, 24h): 0/6
- BR (beating rate), % change from baseline (1 µM, 48h): -16±3 %
- Beating below threshold, number of observations/total well numbers (1 µM, 48h): 0/6
- Cessation of beating, number of observations/total well numbers (1 µM, 48h): 0/6
- EAD, number of observations/total well numbers (1 µM, 48h): 0/6
- FPD (field-potential duration), % change from baseline (1 µM, 48h): 21.1±3.4 %
- FPDc (field-potential duration corrected by beat-rate), % change from baseline (1 µM, 48h): 14.3±2.3 %
- Flat T-wave-like, number of observations/total well numbers (1 µM, 48h): 0/6
- BR (beating rate), % change from baseline (1 µM, 72h): -30±2 %
- Beating below threshold, number of observations/total well numbers (1 µM, 72h): 0/6
- Cessation of beating, number of observations/total well numbers (1 µM, 72h): 0/6
- EAD, number of observations/total well numbers (1 µM, 72h): 0/6
- FPD (field-potential duration), % change from baseline (1 µM, 72h): 54.7±5.4 %
- FPDc (field-potential duration corrected by beat-rate), % change from baseline (1 µM, 72h): 37.5±4.3 %
- Flat T-wave-like, number of observations/total well numbers (1 µM, 72h): 0/6
- BR (beating rate), % change from baseline (1 µM, 96h): -30±5 %
- Beating below threshold, number of observations/total well numbers (1 µM, 96h): 0/6
- Cessation of beating, number of observations/total well numbers (1 µM, 96h): 0/6
- EAD, number of observations/total well numbers (1 µM, 96h): 0/6
- FPD (field-potential duration), % change from baseline (1 µM, 96h): 71.5±10.4 %
- FPDc (field-potential duration corrected by beat-rate), % change from baseline (1 µM, 96h): 52.5±8.8 %
- Flat T-wave-like, number of observations/total well numbers (1 µM, 96h): 0/6
- time point from which physiologically relevant prolongation of FPD and FPDc was observed (3 µM): 24 h
- BR (beating rate), % change from baseline (3 µM, 72h): -54±5 %
- Beating below threshold, number of observations/total well numbers (3 µM, 72h): 0/6
- Cessation of beating, number of observations/total well numbers (3 µM, 72h): 3/6
- EAD, number of observations/total well numbers (3 µM, 72h): 2/6
- FPD (field-potential duration), % change from baseline (3 µM, 72h): 224.5±68 %
- FPDc (field-potential duration corrected by beat-rate), % change from baseline (3 µM, 72h): 156.4±52.5 %
- Flat T-wave-like, number of observations/total well numbers (3 µM, 72h): 1/6
- cessation of beating, wells/total wells (3 µM, 72h): 3/6
- Beating below threshold, number of observations/total well numbers (3 µM, 96h): 1/6
- Cessation of beating, number of observations/total well numbers (3 µM, 96h): 5/6
- EAD, number of observations/total well numbers (3 µM, 96h): 0/6
- Flat T-wave-like, number of observations/total well numbers (3 µM, 96h): 0/6
- cessation of beating, wells/total wells (3 µM, 96h): 6/6
- BR (beating rate), % change from baseline (3 µM, 2h): -2±3%
- Beating below threshold, number of observations/total well numbers (3 µM, 2h): 0/6
- Cessation of beating, number of observations/total well numbers (3 µM, 2h): 0/6
- EAD, number of observations/total well numbers (3 µM, 2h): 0/6
- FPD (field-potential duration), % change from baseline (3 µM, 2h): 3.6±1.9%
- FPDc (field-potential duration corrected by beat-rate), % change from baseline (3 µM, 2h): 2.7±2.1%
- Flat T-wave-like, number of observations/total well numbers (3 µM, 2h): 0/6
- BR (beating rate), % change from baseline (3 µM, 24h): -18±8 %
- Beating below threshold, number of observations/total well numbers (3 µM, 24h): 0/6
- Cessation of beating, number of observations/total well numbers (3 µM, 24h): 0/6
- EAD, number of observations/total well numbers (3 µM, 24h): 0/6
- FPD (field-potential duration), % change from baseline (3 µM, 24h): 23.4±11.8 %
- FPDc (field-potential duration corrected by beat-rate), % change from baseline (3 µM, 24h): 15.2±8%
- Flat T-wave-like, number of observations/total well numbers (3 µM, 24h): 0/6
- BR (beating rate), % change from baseline (3 µM, 48h): -30±8 %
- Beating below threshold, number of observations/total well numbers (3 µM, 48h): 0/6
- Cessation of beating, number of observations/total well numbers (3 µM, 48h): 0/6
- EAD, number of observations/total well numbers (3 µM, 48h): 0/6
- FPD (field-potential duration), % change from baseline (3 µM, 48h): 73.1±39.4 %
- FPDc (field-potential duration corrected by beat-rate), % change from baseline (3 µM, 48h): 52.6±30.7 %
- Flat T-wave-like, number of observations/total well numbers (3 µM, 48h): 0/6
- concentration from which prolongation of FPD and EAD-like events were induced (time- and dose-dependent): 1000 nM

From publication PMC10364322, “Evaluation of chronic drug-induced electrophysiological and cytotoxic effects using human-induced pluripotent stem cell-derived cardiomyocytes (hiPSC-CMs)” (Frontiers in Pharmacology, 2023)
